IC50 data for 23 compounds are collected here from patent US20200172529A1, “Chemical Compound, Pharmaceutical Composition Thereof, and Use and Application Thereof” (Beijing Hanmi Pharm. Co., Ltd., priority 2017, published 2020).

As a reminder, the IC50 is the midpoint of a concentration-inhibition curve.

Bounds are passed on as bounds.

One assay addresses JAK1 kinase (Homo sapiens, UniProt P23458). Description: Inhibition assay of JAK1 kinase activity (ADP-Glo Kinase Assay). The class given is biochemical. From the text: Inhibition assay of JAK1 kinase activity: the method in ADP-Glo™ Kinase Assay (Promega, V9102) was used to determine the inhibitory activity of the test compounds against JAK1 kinase.
A general note: In ADP-Glo the light output rises with the ADP produced.

The next assay has as its target T1, TYK2 kinase (Homo sapiens, UniProt P29597).
T1 construct: purchased Life Technologies PR8440C
Description: Inhibition assay of TYK2 kinase activity (ADP-Glo Kinase Assay). The format is biochemical. As for the experimental part:
Determination of inhibition of TYK2 kinase activity by the examples compounds disclosed herein
Inhibition assay of TYK2 kinase activity: the method of ADP-Glo™ Kinase Assay (Promega, V9102) was used to determine the inhibitory activity of the test compounds against TYK2 kinase.
TYK2 kinase (purchased from Life Technologies, article number: PR8440C) was diluted to the 2-fold final concentration (0.8 ng/mL) using reaction buffer (40 mM Tris-HCl, pH 7.5; 20 mM MgCl2; 0.1 mg/mL BSA; 1 mM DTT), and added to a 384-well plate at 5 μL/well. The test drugs were subjected to a 10-fold gradient dilution, from 10 μM, to obtain 6 concentrations, and added to experimental wells of the 384-well plate at 2.5 μL/well. 5 μL of water and 2.5 μL of buffer were added to negative control wells. 5 μL of TYK2 and 2.5 μL of water were added to positive control wells. After incubating for 10 minutes at room temperature, the substrate ATP and polyE4Y1 (Sigma, P0275) were added at 2.5 μL/well, mixed well, and then reacted at room temperature for 60 minutes. After the reaction was completed, the kinase activity was detected according to the instruction of the kit. First, the ADP-Glo reaction reagent was added at 10 μL/well, mixed well, and reacted at room temperature for 40 minutes. The kinase detection reagent was then added at 20 μL/well, mixed well, and then reacted at room temperature for 30 minutes. The detection was then performed and the IC50s of test drugs were calculated.

Chain of JAK1 kinase (P23458 whole entry): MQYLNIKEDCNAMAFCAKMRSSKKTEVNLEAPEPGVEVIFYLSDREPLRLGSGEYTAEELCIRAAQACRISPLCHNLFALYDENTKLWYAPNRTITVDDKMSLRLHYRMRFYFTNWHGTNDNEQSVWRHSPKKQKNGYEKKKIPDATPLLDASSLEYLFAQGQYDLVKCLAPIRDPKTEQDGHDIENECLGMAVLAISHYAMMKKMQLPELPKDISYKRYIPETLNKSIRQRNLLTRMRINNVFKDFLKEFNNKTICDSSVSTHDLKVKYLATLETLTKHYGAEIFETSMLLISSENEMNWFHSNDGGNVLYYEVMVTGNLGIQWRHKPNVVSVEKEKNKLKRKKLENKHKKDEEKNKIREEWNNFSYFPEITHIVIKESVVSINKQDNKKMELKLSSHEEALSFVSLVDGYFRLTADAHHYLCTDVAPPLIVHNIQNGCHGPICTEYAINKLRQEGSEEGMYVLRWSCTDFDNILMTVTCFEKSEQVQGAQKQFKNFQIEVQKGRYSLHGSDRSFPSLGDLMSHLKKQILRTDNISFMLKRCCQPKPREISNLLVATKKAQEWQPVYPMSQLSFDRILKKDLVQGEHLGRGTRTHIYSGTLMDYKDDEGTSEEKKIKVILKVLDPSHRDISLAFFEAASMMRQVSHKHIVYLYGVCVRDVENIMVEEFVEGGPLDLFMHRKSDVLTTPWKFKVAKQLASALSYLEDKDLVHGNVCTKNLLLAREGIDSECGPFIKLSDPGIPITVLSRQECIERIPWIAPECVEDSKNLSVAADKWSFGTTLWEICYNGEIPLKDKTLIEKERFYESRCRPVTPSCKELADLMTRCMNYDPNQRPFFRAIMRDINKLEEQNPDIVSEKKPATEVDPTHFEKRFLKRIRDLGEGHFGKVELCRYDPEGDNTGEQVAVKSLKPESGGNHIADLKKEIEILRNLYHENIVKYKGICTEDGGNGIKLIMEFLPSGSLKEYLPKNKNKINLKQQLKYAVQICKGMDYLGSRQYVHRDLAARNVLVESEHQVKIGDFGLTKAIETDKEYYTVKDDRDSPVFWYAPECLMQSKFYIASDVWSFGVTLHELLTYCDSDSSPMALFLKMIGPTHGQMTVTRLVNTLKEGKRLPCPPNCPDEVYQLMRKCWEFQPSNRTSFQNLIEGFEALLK
T1 sequence (P29597 whole entry): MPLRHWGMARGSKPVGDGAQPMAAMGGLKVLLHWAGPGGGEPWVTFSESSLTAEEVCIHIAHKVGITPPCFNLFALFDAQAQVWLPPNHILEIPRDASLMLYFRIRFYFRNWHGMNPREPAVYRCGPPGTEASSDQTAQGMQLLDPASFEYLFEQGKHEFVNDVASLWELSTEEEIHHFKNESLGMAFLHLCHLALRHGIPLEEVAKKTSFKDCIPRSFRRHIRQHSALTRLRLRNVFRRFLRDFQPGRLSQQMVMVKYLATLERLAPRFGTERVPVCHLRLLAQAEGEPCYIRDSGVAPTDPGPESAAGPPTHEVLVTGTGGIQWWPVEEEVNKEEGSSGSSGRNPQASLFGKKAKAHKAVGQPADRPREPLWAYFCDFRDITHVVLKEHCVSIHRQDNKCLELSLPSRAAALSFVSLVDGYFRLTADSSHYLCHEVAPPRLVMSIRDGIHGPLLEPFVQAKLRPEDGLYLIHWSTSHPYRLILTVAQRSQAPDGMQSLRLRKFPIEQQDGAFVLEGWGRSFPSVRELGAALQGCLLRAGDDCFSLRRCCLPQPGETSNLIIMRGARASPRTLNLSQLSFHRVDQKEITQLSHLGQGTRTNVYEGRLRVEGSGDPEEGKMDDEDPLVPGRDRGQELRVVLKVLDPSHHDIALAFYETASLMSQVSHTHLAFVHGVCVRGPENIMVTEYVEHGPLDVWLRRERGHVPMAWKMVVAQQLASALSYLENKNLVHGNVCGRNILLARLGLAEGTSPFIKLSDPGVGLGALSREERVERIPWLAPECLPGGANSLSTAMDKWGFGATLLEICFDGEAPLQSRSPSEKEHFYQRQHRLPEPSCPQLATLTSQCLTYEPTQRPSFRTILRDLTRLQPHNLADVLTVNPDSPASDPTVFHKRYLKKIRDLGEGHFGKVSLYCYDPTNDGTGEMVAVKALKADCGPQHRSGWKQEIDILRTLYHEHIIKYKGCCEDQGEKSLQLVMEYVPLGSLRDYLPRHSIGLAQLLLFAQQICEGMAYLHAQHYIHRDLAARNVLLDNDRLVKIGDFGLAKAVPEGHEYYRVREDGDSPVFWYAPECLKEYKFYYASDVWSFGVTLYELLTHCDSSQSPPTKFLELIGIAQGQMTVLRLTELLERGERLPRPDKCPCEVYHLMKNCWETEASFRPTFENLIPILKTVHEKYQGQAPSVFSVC

As for `NC(=O)c1cnc(Nc2ccc3c(c2)NCC(O)CO3)nc1NC1CCCC1` (stereo not drawn) [Example 3, 4-(cyclopentylamino)-2-((3-hydroxy-2,3,4,5-tetrahydro-benzo[b][1,4]oxazepin-7-yl)amino)pyrimidin-5-carboxamide], the IC50 against JAK1 kinase and at TYK2 kinase was less than 10 nM each time.
In the case of `NC(=O)c1cnc(Nc2ccc3c(c2)NCC(O)CO3)nc1NC1CCCCC1` (stereo not drawn) [Example 4, 4-(cyclohexylamino)-2-((3-hydroxy-2,3,4,5-tetrahydro-benzo[b][1,4]oxazepin-7-yl)amino)pyrimidin-5-carboxamide], the figures for the IC50 against JAK1 kinase and on TYK2 kinase were 10 to 100 nM and less than 10 nM, respectively.
The like results for `NC(=O)c1cnc(Nc2ccc3c(c2)NCC(O)CO3)nc1NC12CC3CC(CC(C3)C1)C2` (stereo not drawn) [Example 5, 4-((adamantanyl-1-yl)amino)-2-((3-hydroxy-2,3,4,5-tetrahydro-benzo[b][1,4]oxazepin-7-yl)amino)pyrimidin-5-carboxamide] were, in that order, 10 to 100 nM and 10 to 100 nM.
In the same order, the values of `NC(=O)c1cnc(Nc2ccc3c(c2)NCC(O)CO3)nc1NC1CCOCC1` (stereo not drawn) [Example 6, 4-((tetrahydropyran-4-yl)amino)-2-((3-hydroxy-2,3,4,5-tetrahydro-benzo[b][1,4]oxazepin-7-yl)amino)pyrimidin-5-carboxamide] are 10 to 100 nM and less than 10 nM.
The like results for `N#CCNc1nc(Nc2ccc3c(c2)NCC(O)CO3)ncc1C(N)=O` (stereo not drawn) [Example 8, 4-(cyanomethylamino)-2-((3-hydroxy-2,3,4,5-tetrahydro-benzo[b][1,4]oxazepin-7-yl)amino)pyrimidin-5-carboxamide] were, in that order, 10 to 100 nM and less than 10 nM.
As for `NC(=O)c1cnc(Nc2ccc3c(c2)NCC(O)CO3)nc1NCc1ccc(F)cc1` (stereo not drawn) [Example 10, 4-((4-fluorobenzyl)amino)-2-((3-hydroxy-2,3,4,5-tetrahydro-benzo[b][1,4]oxazepin-7-yl)amino)pyrimidin-5-carboxamide], the concentration for half-maximal inhibition (IC50) against TYK2 kinase is 10 to 100 nM.
As for `COc1ccc(CNc2nc(Nc3ccc4c(c3)NCC(O)CO4)ncc2C(N)=O)cc1` (stereo not drawn) [Example 11, 4-((4-methoxybenzyl)amino)-2-((3-hydroxy-2,3,4,5-tetrahydro-benzo[b][1,4]oxazepin-7-yl)amino)pyrimidin-5-carboxamide], the IC50 against TYK2 kinase lay within 10 to 100 nM.
Still for that read-out and setting: the figure for `CC(Nc1nc(Nc2ccc3c(c2)NCC(O)CO3)ncc1C(N)=O)c1ccccc1` (stereo not drawn) [Example 12, 4-((1-phenylethyl)amino)-2-((3-hydroxy-2,3,4,5-tetrahydro-benzo[b][1,4]oxazepin-7-yl)amino)pyrimidin-5-carboxamide] is 10 to 100 nM; for `NC(=O)c1cnc(Nc2ccc3c(c2)NCC(O)CO3)nc1NCc1ccccn1` (stereo not drawn) [Example 13, 4-((pyridin-2-ylmethyl)amino)-2-((3-hydroxy-2,3,4,5-tetrahydro-benzo[b][1,4]oxazepin-7-yl)amino)pyrimidin-5-carboxamide] it is less than 10 nM.
For `NC(=O)c1cnc(Nc2ccc3c(c2)NCC(O)CO3)nc1NCc1cccnc1` (stereo not drawn) [Example 14, 4-((pyridin-3-ylmethyl)amino)-2-((3-hydroxy-2,3,4,5-tetrahydro-benzo[b][1,4]oxazepin-7-yl)amino)pyrimidin-5-carboxamide], the IC50 against JAK1 kinase is 10 to 100 nM; at TYK2 kinase, less than 10 nM.
On to `NC(=O)c1cnc(Nc2ccc3c(c2)NCC(O)CO3)nc1NCc1ccncc1` (stereo not drawn) [Example 15, 4-((pyridin-4-ylmethyl)amino)-2-((3-hydroxy-2,3,4,5-tetrahydro-benzo[b][1,4]oxazepin-7-yl)amino)pyrimidin-5-carboxamide], for which, at TYK2 kinase, the IC50 was in the range of 10 to 100 nM.
On the same count and under the same terms, as for `NC(=O)c1cnc(Nc2ccc3c(c2)NCC(O)CO3)nc1Nc1ccccc1` (stereo not drawn) [Example 16, 4-(phenylamino)-2-((3-hydroxy-2,3,4,5-tetrahydro-benzo[b][1,4]oxazepin-7-yl)amino)pyrimidin-5-carboxamide], the figure is 10 to 100 nM.
`Cc1cccc(Nc2nc(Nc3ccc4c(c3)NCC(O)CO4)ncc2C(N)=O)c1` (stereo not drawn) [Example 17, 4-((3-methylphenyl)amino)-2-((3-hydroxy-2,3,4,5-tetrahydro-benzo[b][1,4]oxazepin-7-yl)amino)pyrimidin-5-carboxamide]: the half-inhibitory concentration (IC50) at JAK1 kinase is 10 to 100 nM; against TYK2 kinase it was less than 10 nM.
Consider `NC(=O)c1cnc(Nc2ccc3c(c2)NCC(O)CO3)nc1Nc1cccc(F)c1` (stereo not drawn) [Example 18, 4-((3-fluorophenyl)amino)-2-((3-hydroxy-2,3,4,5-tetrahydro-benzo[b][1,4]oxazepin-7-yl)amino)pyrimidin-5-carboxamide], for which the 50% inhibitory concentration (IC50) against TYK2 kinase lay in the range of 10 to 100 nM.
On the same count and under the same terms, as for `Cc1ccc(Nc2nc(Nc3ccc4c(c3)NCC(O)CO4)ncc2C(N)=O)nc1` (stereo not drawn) [Example 19, 4-((5-methylpyridin-2-yl)amino)-2-((3-hydroxy-2,3,4,5-tetrahydro-benzo[b][1,4]oxazepin-7-yl)amino)pyrimidin-5-carboxamide], the figure is 10 to 100 nM; as for `NC(=O)c1cnc(Nc2ccc3c(c2)NCC(O)CO3)nc1Nc1cccc2sccc12` (stereo not drawn) [Example 21, 4-(benzo[b]thiophen-4-ylamino)-2-((3-hydroxy-2,3,4,5-tetrahydro-benzo[b][1,4]oxazepin-7-yl)amino)pyrimidin-5-carboxamide], less than 10 nM; as for `NC(=O)c1cnc(Nc2ccc3c(c2)NCC(O)CO3)nc1NC1CCCc2ccccc21` (stereo not drawn) [Example 22, 4-((1,2,3,4-tetrahydronaphthalen-1-yl)amino)-2-((3-hydroxy-2,3,4,5-tetrahydro-benzo[b][1,4]oxazepin-7-yl)amino)pyrimidin-5-carboxamide], 10 to 100 nM.
Same read-out and setting: as for `CC(O)CNc1nc(Nc2ccc3c(c2)NCC(O)CO3)ncc1C(N)=O` (stereo not drawn) [Example 23, 4-((2-hydroxypropyl)amino)-2-((3-hydroxy-2,3,4,5-tetrahydro-benzo[b][1,4]oxazepin-7-yl)amino)pyrimidin-5-carboxamide], the figure is less than 10 nM; as for `CC(C)(CO)Nc1nc(Nc2ccc3c(c2)NC[C@H](O)CO3)ncc1C(N)=O` [Example 28, 4-((1-hydroxy-2-methylpropan-2-yl)amino)-2-(((S)-2,3,4,5-tetrahydro-3-hydroxybenzo[b][1,4]oxazepin-7-yl)amino)pyrimidin-5-carboxamide], less than 10 nM.
The same measure, in the same setting: as for `CCS(=O)(=O)NCCNc1nc(Nc2ccc3c(c2)NC[C@H](O)CO3)ncc1C(N)=O` [Example 71, 4-((2-(ethylsulfonamido)ethyl)amino)-2-(((S)-2,3,4,5-tetrahydro-3-hydroxybenzo[b][1,4]oxazepin-7-yl)amino)pyrimidin-5-carboxamide], the figure is less than 10 nM; as for `CCO[C@@H]1CNc2cc(Nc3ncc(C(N)=O)c(NC4CC4)n3)ccc2OC1` [Example 83, 4-(cyclopropylamino)-2-(((R)-2,3,4,5-tetrahydro-3-ethoxybenzo[b][1,4]oxazepin-7-yl)amino)pyrimidin-5-carboxamide], less than 10 nM.
For the compound `CCCCO[C@@H]1CNc2cc(Nc3ncc(C(N)=O)c(NC4CC4)n3)ccc2OC1` [Example 85, 4-(cyclopropylamino)-2-(((R)-2,3,4,5-tetrahydro-3-butoxybenzo[b][1,4]oxazepin-7-yl)amino)pyrimidin-5-carboxamide], at TYK2 kinase, the IC50 was less than 10 nM.
Same read-out and setting: as for `CCCCCO[C@H]1CNc2cc(Nc3ncc(C(N)=O)c(NC4CC4)n3)ccc2OC1` [Example 88, 4-(cyclopropylamino)-2-(((S)-2,3,4,5-tetrahydro-3-pentoxybenzo[b][1,4]oxazepin-7-yl)amino)pyrimidin-5-carboxamide], the figure is 10 to 100 nM.
